This note sets out measurements from PubChem BioAssay (NCI).

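In this assay, cells in 96-well plates receive the compound at five concentrations for 48 hours. Endpoints are linearly interpolated between the surrounding concentrations. TGI marks complete inhibition of growth.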

One experiment relates to NCI/ADR-RES ovarian. Kind of experiment: NCI tumour cell line growth inhibition, 48 h.
Consider `COc1ccc(C2c3cc4c(cc3C(O)C3CCC(=O)N23)OCO4)cc1` (stereo not given), for which the TGI is greater than 100 µM.

Molecule `CC1(C)C(=O)N(O)C(C)(C)N1O` had a TGI greater than 10 µM.

The molecule `CCOC(=O)/C(O)=C(/C=N\C(=S)Nc1ccccc1Cl)C(=O)OCC` came in with a TGI greater than 100 µM.

With `CCOC(=O)CCC(NC(=O)Cc1ccc(Nc2nc3ccccc3nc2-c2ccccc2)cc1)C(=O)OCC` (stereo not given), the TGI was greater than 100 µM.

With `Cc1nc2sc(CCl)nn2c(=O)c1Cl`, the TGI was determined as 50.8 µM.

For `COc1ccc(/C=C(\Cl)c2ccc(OC)c(OC)c2)cc1OC`, the TGI is greater than 100 µM.

`CCOC(=O)c1ccc(C(=O)OCC)n1-c1cc2cc(c1)CSCc1cc(cc(-n3c(C(=O)OCC)ccc3C(=O)OCC)c1)CSC2` yielded a TGI greater than 10 µM.

The molecule `Cc1ccc(NCC2CC/C(=C\c3ccc(Cl)cc3)C2=O)cc1` (stereo not given) had a TGI greater than 80.1 µM.

In the case of `COc1cc(OCc2ccc3nc(-c4ccccc4)c(N)nc3c2)cc(OC)c1OC`, the TGI is 49.6 µM.

Molecule `O=S1(=O)c2cnccc2NC(=NCc2cccc3ccccc23)N1c1ccccc1` yielded a TGI greater than 100 µM.

With `Cc1occc1C(=S)Nc1ccc(Cl)c(C(=O)OCC(F)(F)F)c1`, the TGI is 40.1 µM.

A further experiment relates to A549 NSCLC. As to the kind of experiment: NCI tumour cell line growth inhibition, 48 h.
Turning to `COc1ccc(C2c3cc4c(cc3C(O)C3CCC(=O)N23)OCO4)cc1` (stereo not given), the TGI was greater than 100 µM.

As for `CC1(C)C(=O)N(O)C(C)(C)N1O`, the TGI is greater than 10 µM.

In turn, `CCOC(=O)/C(O)=C(/C=N\C(=S)Nc1ccccc1Cl)C(=O)OCC` had a TGI greater than 100 µM.

Consider `CCOC(=O)CCC(NC(=O)Cc1ccc(Nc2nc3ccccc3nc2-c2ccccc2)cc1)C(=O)OCC` (stereo not given), for which the TGI was greater than 100 µM.

`Cc1nc2sc(CCl)nn2c(=O)c1Cl`: the TGI is 29.6 µM.

Take `COc1ccc(/C=C(\Cl)c2ccc(OC)c(OC)c2)cc1OC`: the TGI is greater than 100 µM.

`CCOC(=O)c1ccc(C(=O)OCC)n1-c1cc2cc(c1)CSCc1cc(cc(-n3c(C(=O)OCC)ccc3C(=O)OCC)c1)CSC2` had a TGI greater than 10 µM.

`Cc1ccc(NCC2CC/C(=C\c3ccc(Cl)cc3)C2=O)cc1` (stereo not given) yielded a TGI greater than 100 µM.

`COc1cc(OCc2ccc3nc(-c4ccccc4)c(N)nc3c2)cc(OC)c1OC`: the TGI was 61.2 µM.

Regarding `O=S1(=O)c2cnccc2NC(=NCc2cccc3ccccc23)N1c1ccccc1`, the TGI is greater than 100 µM.

Molecule `Cc1occc1C(=S)Nc1ccc(Cl)c(C(=O)OCC(F)(F)F)c1` returned a TGI of 58.4 µM.

The subject of a further experiment is PC-3 prostate. As to the kind of experiment: NCI tumour cell line growth inhibition, 48 h.
Molecule `COc1ccc(C2c3cc4c(cc3C(O)C3CCC(=O)N23)OCO4)cc1` (stereo not given) had a TGI greater than 100 µM.

Regarding `CC1(C)C(=O)N(O)C(C)(C)N1O`, the TGI was greater than 10 µM.

For the molecule `CCOC(=O)/C(O)=C(/C=N\C(=S)Nc1ccccc1Cl)C(=O)OCC`, the TGI is greater than 100 µM.

Molecule `CCOC(=O)CCC(NC(=O)Cc1ccc(Nc2nc3ccccc3nc2-c2ccccc2)cc1)C(=O)OCC` (stereo not given) displayed a TGI greater than 100 µM.

Molecule `Cc1nc2sc(CCl)nn2c(=O)c1Cl` gave a TGI of 25.1 µM.

Take `COc1ccc(/C=C(\Cl)c2ccc(OC)c(OC)c2)cc1OC`: the TGI was greater than 100 µM.

`CCOC(=O)c1ccc(C(=O)OCC)n1-c1cc2cc(c1)CSCc1cc(cc(-n3c(C(=O)OCC)ccc3C(=O)OCC)c1)CSC2` returned a TGI greater than 10 µM.

Molecule `Cc1ccc(NCC2CC/C(=C\c3ccc(Cl)cc3)C2=O)cc1` (stereo not given) displayed a TGI of 37.5 µM.

`COc1cc(OCc2ccc3nc(-c4ccccc4)c(N)nc3c2)cc(OC)c1OC`: the TGI came to 45.4 µM.

Molecule `O=S1(=O)c2cnccc2NC(=NCc2cccc3ccccc23)N1c1ccccc1` gave a TGI greater than 81.8 µM.

With `Cc1occc1C(=S)Nc1ccc(Cl)c(C(=O)OCC(F)(F)F)c1`, the TGI amounted to 57.8 µM.

The next experiment deals with COLO 205 colon. Kind of experiment: NCI tumour cell line growth inhibition, 48 h.
`COc1ccc(C2c3cc4c(cc3C(O)C3CCC(=O)N23)OCO4)cc1` (stereo not given): the TGI was greater than 100 µM.

Molecule `CC1(C)C(=O)N(O)C(C)(C)N1O` yielded a TGI greater than 10 µM.

Take `CCOC(=O)/C(O)=C(/C=N\C(=S)Nc1ccccc1Cl)C(=O)OCC`: the TGI was greater than 100 µM.

On to `CCOC(=O)CCC(NC(=O)Cc1ccc(Nc2nc3ccccc3nc2-c2ccccc2)cc1)C(=O)OCC` (stereo not given), for which the TGI is greater than 100 µM.

As for `Cc1nc2sc(CCl)nn2c(=O)c1Cl`, the TGI turned out to be 32.2 µM.

Molecule `COc1ccc(/C=C(\Cl)c2ccc(OC)c(OC)c2)cc1OC` registered a TGI greater than 100 µM.

Turning to `CCOC(=O)c1ccc(C(=O)OCC)n1-c1cc2cc(c1)CSCc1cc(cc(-n3c(C(=O)OCC)ccc3C(=O)OCC)c1)CSC2`, the TGI was greater than 10 µM.

Molecule `Cc1ccc(NCC2CC/C(=C\c3ccc(Cl)cc3)C2=O)cc1` (stereo not given) displayed a TGI of 34.2 µM.

`COc1cc(OCc2ccc3nc(-c4ccccc4)c(N)nc3c2)cc(OC)c1OC` registered a TGI of 30.1 µM.

The molecule `O=S1(=O)c2cnccc2NC(=NCc2cccc3ccccc23)N1c1ccccc1` showed a TGI greater than 100 µM.

`Cc1occc1C(=S)Nc1ccc(Cl)c(C(=O)OCC(F)(F)F)c1` gave a TGI of 67.6 µM.

For another experiment, the system named is SK-MEL-5 melanoma. Kind of experiment: NCI tumour cell line growth inhibition, 48 h.
In turn, `COc1ccc(C2c3cc4c(cc3C(O)C3CCC(=O)N23)OCO4)cc1` (stereo not given) returned a TGI greater than 100 µM.

Consider `CC1(C)C(=O)N(O)C(C)(C)N1O`, for which the TGI is greater than 10 µM.

Molecule `CCOC(=O)/C(O)=C(/C=N\C(=S)Nc1ccccc1Cl)C(=O)OCC` displayed a TGI greater than 100 µM.

`CCOC(=O)CCC(NC(=O)Cc1ccc(Nc2nc3ccccc3nc2-c2ccccc2)cc1)C(=O)OCC` (stereo not given): the TGI was greater than 100 µM.

Molecule `Cc1nc2sc(CCl)nn2c(=O)c1Cl` yielded a TGI of 18.7 µM.

In the case of `COc1ccc(/C=C(\Cl)c2ccc(OC)c(OC)c2)cc1OC`, the TGI was greater than 100 µM.

With `CCOC(=O)c1ccc(C(=O)OCC)n1-c1cc2cc(c1)CSCc1cc(cc(-n3c(C(=O)OCC)ccc3C(=O)OCC)c1)CSC2`, the TGI is greater than 10 µM.

Regarding `Cc1ccc(NCC2CC/C(=C\c3ccc(Cl)cc3)C2=O)cc1` (stereo not given), the TGI came to 20.4 µM.

As to `COc1cc(OCc2ccc3nc(-c4ccccc4)c(N)nc3c2)cc(OC)c1OC`, the TGI was 24 µM.

Regarding `O=S1(=O)c2cnccc2NC(=NCc2cccc3ccccc23)N1c1ccccc1`, the TGI was greater than 100 µM.

With `Cc1occc1C(=S)Nc1ccc(Cl)c(C(=O)OCC(F)(F)F)c1`, the TGI came to 30.9 µM.
